Test results taken from patent US8729017B2 (priority 2011, dated 2014).
Numbered stars: 1 amine (or outer) side, 2 acyl side, 3 side chain; on linkers, the order of the positions; unused ones are H or OH. Square brackets hold non-standard residues; d marks the D form. Side chains are listed from the residue outwards. Peptide text beside a SMILES is read from it. * marks the point of attachment. γGlu = O=C(O)[C@H](CCC(=O)[*:2])N[*:1]; Palmitoyl = CCCCCCCCCCCCCCCC(=O)*; Aib = CC(C)(N)C(=O)O

Experiments:
Format in all cases: cell-based
glucagon receptor = target: T1, glucagon receptor (Homo sapiens, UniProt P47871); assay: cAMP induction, firefly luciferase reporter assay in HEK293 cells co-transfected with the glucagon receptor; details: HEK293 cells, cAMP-responsive luciferase reporter, 5 hours incubation
T1 construct: expressed in transfected cells; host or cells: HEK293
Experimental: (§1) The ability of each peptide to induce cAMP was measured in a firefly luciferase-based reporter assay. […] At the end of the incubation, 100 μL of LucLite luminescence substrate reagent (Perkin Elmer, Wellesley, Mass.) were added to each well. […] In some instances, the in vitro agonist activity at the GIP receptor was also tested.

GLP-1 receptor = target: T2, GLP-1 receptor (Homo sapiens, UniProt P43220); assay: cAMP induction, firefly luciferase reporter assay in HEK293 cells co-transfected with the GLP-1 receptor; details: HEK293 cells, cAMP-responsive luciferase reporter, 5 hours incubation
T2 construct: expressed in transfected cells; host or cells: HEK293
Experimental: as §1

GIP receptor = target: T3, GIP receptor (Homo sapiens, UniProt P48546); assay: in vitro agonist activity at the GIP receptor (cAMP luciferase reporter, HEK293 cells); details: in vitro agonist activity; read-out: EC50 (nM) at GIP receptor
T3 construct: expressed in transfected cells; host or cells: HEK293
T3 sequence (P48546 22-466): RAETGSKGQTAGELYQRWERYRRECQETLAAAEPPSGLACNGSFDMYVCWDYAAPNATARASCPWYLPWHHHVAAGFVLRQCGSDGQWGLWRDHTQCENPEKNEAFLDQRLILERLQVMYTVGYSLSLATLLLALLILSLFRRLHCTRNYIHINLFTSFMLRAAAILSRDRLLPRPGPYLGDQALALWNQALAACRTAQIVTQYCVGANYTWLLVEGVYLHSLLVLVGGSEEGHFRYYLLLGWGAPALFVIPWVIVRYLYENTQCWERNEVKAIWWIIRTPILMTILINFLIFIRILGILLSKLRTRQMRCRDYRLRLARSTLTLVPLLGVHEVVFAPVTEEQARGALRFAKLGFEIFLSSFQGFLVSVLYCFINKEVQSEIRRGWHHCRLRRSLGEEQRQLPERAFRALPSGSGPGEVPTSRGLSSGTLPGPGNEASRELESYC
Experimental: as §1, with “It is understood that a lower EC50 indicates higher activity or potency at the receptor. […] The” for “The”

T1 sequence (P47871 26-477, species assumed): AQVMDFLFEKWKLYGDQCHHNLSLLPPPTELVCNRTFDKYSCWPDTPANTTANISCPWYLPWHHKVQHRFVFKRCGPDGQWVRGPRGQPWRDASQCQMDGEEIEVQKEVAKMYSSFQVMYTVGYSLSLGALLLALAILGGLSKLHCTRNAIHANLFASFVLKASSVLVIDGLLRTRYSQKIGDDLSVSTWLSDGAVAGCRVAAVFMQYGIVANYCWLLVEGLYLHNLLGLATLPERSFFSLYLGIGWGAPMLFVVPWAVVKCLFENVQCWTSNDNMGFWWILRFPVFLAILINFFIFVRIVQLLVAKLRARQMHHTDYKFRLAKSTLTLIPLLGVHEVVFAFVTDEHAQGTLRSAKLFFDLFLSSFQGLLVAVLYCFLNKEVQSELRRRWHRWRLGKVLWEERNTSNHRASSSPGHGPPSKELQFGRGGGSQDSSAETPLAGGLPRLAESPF
T2 sequence (P43220 24-463): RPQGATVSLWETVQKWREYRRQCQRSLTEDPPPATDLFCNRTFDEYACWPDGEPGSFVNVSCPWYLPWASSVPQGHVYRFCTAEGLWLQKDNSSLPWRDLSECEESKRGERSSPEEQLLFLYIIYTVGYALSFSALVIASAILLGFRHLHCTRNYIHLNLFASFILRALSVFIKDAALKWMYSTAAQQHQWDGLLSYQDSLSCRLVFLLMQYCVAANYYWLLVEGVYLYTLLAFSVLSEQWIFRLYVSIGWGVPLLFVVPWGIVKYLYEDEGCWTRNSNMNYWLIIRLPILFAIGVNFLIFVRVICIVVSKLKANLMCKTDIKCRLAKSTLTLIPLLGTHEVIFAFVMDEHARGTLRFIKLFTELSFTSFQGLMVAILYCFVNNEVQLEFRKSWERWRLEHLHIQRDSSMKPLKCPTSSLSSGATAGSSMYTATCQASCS

EC50 (glucagon receptor) [nM]	EC50 (GLP-1 receptor) [nM]	EC50 (GIP receptor) [nM]	SMILES
0.028	0.003	0.47	CCCCCCCCCCCCCCCC(=O)N[C@@H](CCC(=O)NCCCC[C@H](NC(=O)[C@H](CC(=O)O)NC(=O)[C@H](CO)NC(=O)[C@@H](NC(=O)[C@H](Cc1ccccc1)NC(=O)[C@@H](NC(=O)CNC(=O)[C@H](CCC(N)=O)NC(=O)C(C)(C)NC(=O)[C@@H](N)Cc1c[nH]cn1)[C@@H](C)O)[C@@H](C)O)C(=O)N[C@@H](CO)C(=O)N[C@@H](CCCCN)C(=O)N[C@@H](Cc1ccc(O)cc1)C(=O)N[C@@H](CC(C)C)C(=O)N[C@@H](CC(=O)O)C(=O)NC(C)(C)C(=O)N[C@@H](CCCNC(=N)N)C(=O)N[C@@H](C)C(=O)N[C@@H](C)C(=O)N[C@@H](CCC(N)=O)C(=O)N[C@@H](CC(=O)O)C(=O)N[C@@H](Cc1ccccc1)C(=O)N[C@H](C(=O)N[C@@H](CCC(N)=O)C(=O)N[C@@H](Cc1c[nH]c2ccccc12)C(=O)N[C@@H](CC(C)C)C(=O)N[C@@H](CCCCN)C(=O)N[C@@H](CC(=O)O)C(=O)NCC(=O)N[C@@H](CCCNC(=N)N)C(=O)NCC(N)=O)C(C)C)C(=O)O [compound 36] (H-H[Aib]QGTFTSDK([γGlu-Palmitoyl])SKYLD[Aib]RAAQDFVQWLKDGRG-NH2)
0.015	0.003	2.84	CCCCCCCCCCCCCCCC(=O)N[C@@H](CCC(=O)NCCCC[C@H](NC(=O)[C@H](CC(=O)O)NC(=O)[C@H](CO)NC(=O)[C@@H](NC(=O)[C@H](Cc1ccccc1)NC(=O)[C@@H](NC(=O)CNC(=O)[C@H](CCC(N)=O)NC(=O)[C@@H](CO)NC(=O)[C@@H](N)Cc1c[nH]cn1)[C@@H](C)O)[C@@H](C)O)C(=O)N[C@@H](CO)C(=O)N[C@@H](CCCCN)C(=O)N[C@@H](Cc1ccc(O)cc1)C(=O)N[C@@H](CC(C)C)C(=O)N[C@@H](CC(=O)O)C(=O)N[C@@H](CCC(=O)O)C(=O)N[C@@H](CCCNC(=N)N)C(=O)N[C@@H](C)C(=O)N[C@@H](C)C(=O)N[C@@H](CCC(N)=O)C(=O)N[C@@H](CC(=O)O)C(=O)N[C@@H](Cc1ccccc1)C(=O)N[C@H](C(=O)N[C@@H](CCC(N)=O)C(=O)N[C@@H](Cc1c[nH]c2ccccc12)C(=O)N[C@@H](CC(C)C)C(=O)N[C@@H](CC(C)C)C(=O)N[C@@H](CC(=O)O)C(=O)NCC(=O)N[C@@H](CCCNC(=N)N)C(=O)N[C@@H](CCCCN)C(N)=O)C(C)C)C(=O)O [compound 28]
0.005	0.002	2.37	CCCCCCCCCCCCCCCC(=O)N[C@@H](CCC(=O)N[C@@H](CCC(=O)NCCCC[C@H](NC(=O)[C@H](CC(=O)O)NC(=O)[C@H](CO)NC(=O)[C@@H](NC(=O)[C@H](Cc1ccccc1)NC(=O)[C@@H](NC(=O)CNC(=O)[C@H](CCC(N)=O)NC(=O)C(C)(C)NC(=O)[C@@H](N)Cc1c[nH]cn1)[C@@H](C)O)[C@@H](C)O)C(=O)N[C@@H](CO)C(=O)N[C@@H](CCCCN)C(=O)N[C@@H](Cc1ccc(O)cc1)C(=O)N[C@@H](CC(C)C)C(=O)N[C@@H](CC(=O)O)C(=O)NC(C)(C)C(=O)N[C@@H](CCCNC(=N)N)C(=O)N[C@@H](C)C(=O)N[C@@H](C)C(=O)N[C@@H](CCC(N)=O)C(=O)N[C@@H](CC(=O)O)C(=O)N[C@@H](Cc1ccccc1)C(=O)N[C@H](C(=O)N[C@@H](CCC(N)=O)C(=O)N[C@@H](Cc1c[nH]c2ccccc12)C(=O)N[C@@H](CC(C)C)C(=O)N[C@@H](CCSC)C(=O)N[C@@H](CC(=O)O)C(=O)NCC(=O)N[C@@H](CCCNC(=N)N)C(=O)NCC(N)=O)C(C)C)C(=O)O)C(=O)O [compound 22] (H-H[Aib]QGTFTSDK([γGlu-γGlu-Palmitoyl])SKYLD[Aib]RAAQDFVQWLMDGRG-NH2; N-terminus assumed)
0.933	0.0082	9.06	CCCCCCCCCCCCCCCC(=O)N[C@@H](CCC(=O)NCCCC[C@H](NC(=O)[C@H](CC(=O)O)NC(=O)[C@H](CO)NC(=O)[C@@H](NC(=O)[C@H](Cc1ccccc1)NC(=O)[C@@H](NC(=O)CNC(=O)[C@H](CCC(N)=O)NC(=O)C(C)(C)NC(=O)[C@@H](N)Cc1c[nH]cn1)[C@@H](C)O)[C@@H](C)O)C(=O)N[C@@H](CO)C(=O)N[C@@H](CCCCN)C(=O)N[C@@H](Cc1ccc(O)cc1)C(=O)N[C@@H](CC(C)C)C(=O)N[C@@H](CC(=O)O)C(=O)NC(C)(C)C(=O)N[C@@H](CCCNC(=N)N)C(=O)N[C@@H](C)C(=O)N[C@@H](C)C(=O)N[C@@H](CCC(N)=O)C(=O)N[C@@H](CC(=O)O)C(=O)N[C@@H](Cc1ccccc1)C(=O)N[C@H](C(=O)N[C@@H](CCC(N)=O)C(=O)N[C@@H](Cc1c[nH]c2ccccc12)C(=O)N[C@@H](CC(C)C)C(=O)N[C@@H](CC(C)C)C(=O)N[C@@H](CC(=O)O)C(=O)NCC(=O)N[C@@H](CCCNC(=N)N)C(=O)NCC(N)=O)C(C)C)C(=O)O [compound 30] (H-H[Aib]QGTFTSDK([γGlu-Palmitoyl])SKYLD[Aib]RAAQDFVQWLLDGRG-NH2)
0.005	0.009	4.5	CCCCCCCCCCCCCCCC(=O)N[C@@H](CCC(=O)NCCCC[C@H](NC(=O)[C@H](CC(=O)O)NC(=O)[C@H](CO)NC(=O)[C@@H](NC(=O)[C@H](Cc1ccccc1)NC(=O)[C@@H](NC(=O)CNC(=O)[C@H](CCC(N)=O)NC(=O)[C@@H](CO)NC(=O)[C@H](Cc1c[nH]cn1)NC(C)=O)[C@@H](C)O)[C@@H](C)O)C(=O)N[C@@H](CO)C(=O)N[C@@H](CCCCN)C(=O)N[C@@H](Cc1ccc(O)cc1)C(=O)N[C@@H](CC(C)C)C(=O)N[C@@H](CC(=O)O)C(=O)N[C@@H](CCC(=O)O)C(=O)N[C@@H](CCCNC(=N)N)C(=O)N[C@@H](C)C(=O)N[C@@H](C)C(=O)N[C@@H](CCC(N)=O)C(=O)N[C@@H](CC(=O)O)C(=O)N[C@@H](Cc1ccccc1)C(=O)N[C@H](C(=O)N[C@@H](CCC(N)=O)C(=O)N[C@@H](Cc1c[nH]c2ccccc12)C(=O)N[C@@H](CC(C)C)C(=O)N[C@@H](CC(C)C)C(=O)N[C@@H](CC(=O)O)C(=O)N[C@H](C(N)=O)[C@@H](C)O)C(C)C)C(=O)O [compound 21]
0.09	0.025	35.7	CCCCCCCCCCCCCCCC(=O)NCCCC[C@H](NC(=O)[C@H](CC(=O)O)NC(=O)[C@H](CO)NC(=O)[C@@H](NC(=O)[C@H](Cc1ccccc1)NC(=O)[C@@H](NC(=O)CNC(=O)[C@H](CCC(N)=O)NC(=O)C(C)(C)NC(=O)[C@@H](N)Cc1c[nH]cn1)[C@@H](C)O)[C@@H](C)O)C(=O)N[C@@H](CO)C(=O)N[C@@H](CCCCN)C(=O)N[C@@H](Cc1ccc(O)cc1)C(=O)N[C@@H](CC(C)C)C(=O)N[C@@H](CC(=O)O)C(=O)N[C@@H](CO)C(=O)N[C@@H](CCCNC(=N)N)C(=O)N[C@@H](CCCNC(=N)N)C(=O)N[C@@H](C)C(=O)NC(C)(C)C(=O)N[C@@H](CC(=O)O)C(=O)N[C@@H](Cc1ccccc1)C(=O)N[C@H](C(=O)N[C@@H](CCC(N)=O)C(=O)N[C@@H](Cc1c[nH]c2ccccc12)C(=O)N[C@@H](CC(C)C)C(=O)N[C@@H](CCSC)C(=O)N[C@@H](CC(N)=O)C(=O)N[C@H](C(N)=O)[C@@H](C)O)C(C)C [compound 58] (H-H[Aib]QGTFTSDK(Palmitoyl)SKYLDSRRA[Aib]DFVQWLMNT-NH2)
0.016	0.007	2.34	CCCCCCCCCCCCCCCC(=O)N[C@@H](CCC(=O)N[C@@H](CCC(=O)NCCCC[C@H](NC(=O)[C@H](CC(=O)O)NC(=O)[C@H](CO)NC(=O)[C@@H](NC(=O)[C@H](Cc1ccccc1)NC(=O)[C@@H](NC(=O)CNC(=O)[C@H](CCC(N)=O)NC(=O)C(C)(C)NC(=O)[C@@H](N)Cc1c[nH]cn1)[C@@H](C)O)[C@@H](C)O)C(=O)N[C@@H](CO)C(=O)N[C@@H](CCCCN)C(=O)N[C@@H](Cc1ccc(O)cc1)C(=O)N[C@@H](CC(C)C)C(=O)N[C@@H](CC(=O)O)C(=O)NC(C)(C)C(=O)N[C@@H](CCCNC(=N)N)C(=O)N[C@@H](C)C(=O)N[C@@H](C)C(=O)N[C@@H](CCC(N)=O)C(=O)N[C@@H](CC(=O)O)C(=O)N[C@@H](Cc1ccccc1)C(=O)N[C@H](C(=O)N[C@@H](CCC(N)=O)C(=O)N[C@@H](Cc1c[nH]c2ccccc12)C(=O)N[C@@H](CC(C)C)C(=O)N[C@@H](CCSC)C(=O)N[C@@H](CCCCN)C(=O)NCC(=O)N[C@@H](CCCNC(=N)N)C(=O)NCC(=O)O)C(C)C)C(=O)O)C(=O)O [compound 31] (H-H[Aib]QGTFTSDK([γGlu-γGlu-Palmitoyl])SKYLD[Aib]RAAQDFVQWLMKGRG-OH; N-terminus assumed)
